Measured values taken from US20220296714A1, “TARGETED NANO-PHOTOMEDICINES FOR PHOTODYNAMIC THERAPY OF CANCER” (ERASMUS UNIVERSITY MEDICAL CENTER ROTTERDAM, priority 2009, published 2022).

Experiments:
[1] = Photobleaching under laser irradiation, measured with a fluorescence spectrometer; type: physicochemical; conditions: total dose 10 J cm^−2, nearly same initial fluorescence intensity
Protocol: Photobleaching characteristics of free Ce6 and nanophotomedicine (NPM-3) having nearly the same initial florescence intensity (that correlate with concentration of the drug) is compared using a fluorescence spectrometer. Laser irradiation of samples of both products was carried out under identical condition of a total dose of 10 J cm^−2. FIG. 4 illustrates the changes in the fluorescence emission characteristics of both the samples. […] In effect, this leads to long term stability of the drug within the construct even after extended duration of therapy.

[2] = system: Leukemia cells K562; assay: Intracellular photobleaching by confocal imaging under 405 nm laser; type: cell-based, human; conditions: 1 μM sensitizer, 3 hrs incubation, 1-360 seconds
Protocol: Leukemia cells K562 were seeded at 800.000 cells/well in a 12 well tissue culture plate and treated with both free Ce6 (1 μM) and nanophotomedicine (NPM-3) prepared by using the same concentration of the sensitizer. Cells were incubated at 37° C. for 3 hrs before imaging using confocal microscope. Fluorescence imaging was carried out by exciting the sensitizer or nanophotomedicine taken-up by the cells using 405 nm laser. For recording the photobleaching at intracellular regions of the cancer cells, which has significant correlation to therapeutic effects, imaging is carried out after stipulated duration of laser irradiation from 1-360 seconds).

- photodose at which the drug is inactivated by photobleaching [1]: 2.5 J cm^−2
Substance: chlorin e6 [free Ce6]
- duration of laser irradiation until intracellular fluorescence is bleached out [2]: 30 s
